Source: the NIST ThermoML archive (doi:10.1021/acs.jced.6b00606)
± gives the expanded uncertainty stated by the source.

Key:
[1] = xn = mol fraction of the nth substance listed; settings: 100 kPa, Liquid; for speed of sound: Frequency=3 MHz, Sing-around technique in a fixed-path interferometer; for mass density: Vibrating tube method
[2] = excess molar enthalpy (molar enthalpy of mixing); xn = mol fraction of the nth substance listed; settings: 308.15 K, 100 kPa, Liquid, Calvet calorimetry

O=C1CCCCC1 [cyclohexanone] + C1COCCO1
[1]
Settings	mass density, 293.15 K [kg/m3]	mass density, 298.15 K [kg/m3]	mass density, 303.15 K [kg/m3]	mass density, 308.15 K [kg/m3]	speed of sound, 293.15 K [m/s]	speed of sound, 298.15 K [m/s]	speed of sound, 303.15 K [m/s]	speed of sound, 308.15 K [m/s]
x2 = 0.0999	953.66 ± 1	949.13 ± 1	944.25 ± 1	939.34 ± 1	1423.2 ± 1.3	1407.2 ± 1.3	1387 ± 1.3	1367.1 ± 1.3
x2 = 0.1548	957.29 ± 1	952.73 ± 1	947.83 ± 1	942.9 ± 1	1419 ± 1.4	1402.8 ± 1.4	1382.6 ± 1.4	1362.7 ± 1.3
x2 = 0.2064	960.83 ± 1	956.23 ± 1	951.32 ± 1	946.37 ± 1	1415.2 ± 1.4	1398.7 ± 1.4	1378.5 ± 1.4	1358.7 ± 1.4
x2 = 0.2523	964.08 ± 1	959.45 ± 1	954.52 ± 1	949.56 ± 1	1411.8 ± 1.4	1395.1 ± 1.4	1374.9 ± 1.4	1355 ± 1.4
x2 = 0.3087	968.21 ± 1	963.55 ± 1	958.59 ± 1	953.6 ± 1	1407.8 ± 1.4	1390.8 ± 1.4	1370.6 ± 1.4	1350.6 ± 1.4
x2 = 0.3412	970.67 ± 1	965.97 ± 1	960.99 ± 1	955.99 ± 1	1405.5 ± 1.4	1388.3 ± 1.4	1368.1 ± 1.4	1348.1 ± 1.4
x2 = 0.3952	974.86 ± 1	970.12 ± 1	965.11 ± 1	960.08 ± 1	1401.8 ± 1.4	1384.3 ± 1.4	1364 ± 1.4	1343.9 ± 1.4
x2 = 0.4315	977.76 ± 1	972.99 ± 1	967.96 ± 1	962.9 ± 1	1399.3 ± 1.4	1381.6 ± 1.4	1361.3 ± 1.4	1341.2 ± 1.4
x2 = 0.4875	982.38 ± 1	977.54 ± 1	972.47 ± 1	967.38 ± 1	1395.6 ± 1.4	1377.6 ± 1.4	1357.2 ± 1.4	1336.9 ± 1.4
x2 = 0.5348	986.41 ± 1	981.52 ± 1	976.42 ± 1	971.29 ± 1	1392.5 ± 1.4	1374.2 ± 1.4	1353.8 ± 1.4	1333.5 ± 1.4
x2 = 0.5798	990.36 ± 1	985.42 ± 1	980.28 ± 1	975.11 ± 1	1389.7 ± 1.4	1371.1 ± 1.4	1350.6 ± 1.4	1330.2 ± 1.4
x2 = 0.6145	993.49 ± 1	988.51 ± 1	983.33 ± 1	978.13 ± 1	1387.5 ± 1.4	1368.7 ± 1.4	1348.2 ± 1.4	1327.7 ± 1.4
x2 = 0.6698	998.63 ± 1	993.56 ± 1	988.34 ± 1	983.08 ± 1	1384.1 ± 1.4	1365 ± 1.4	1344.4 ± 1.4	1323.8 ± 1.4
x2 = 0.7148	1002.9 ± 1	997.82 ± 1	992.55 ± 1	987.23 ± 1	1381.5 ± 1.4	1362 ± 1.4	1341.4 ± 1.4	1320.7 ± 1.4
x2 = 0.7682	1008.2 ± 1	1003 ± 1	997.69 ± 1	992.32 ± 1	1378.5 ± 1.4	1358.7 ± 1.4	1338 ± 1.4	1317.1 ± 1.4
x2 = 0.8015	1011.6 ± 1	1006.4 ± 1	1001 ± 1	995.58 ± 1	1376.8 ± 1.5	1356.7 ± 1.4	1335.9 ± 1.4	1314.9 ± 1.4
x2 = 0.8542	1017.2 ± 1	1011.8 ± 1	1006.4 ± 1	1000.8 ± 1	1374.1 ± 1.5	1353.6 ± 1.5	1332.7 ± 1.5	1311.5 ± 1.5
x2 = 0.9054	1022.7 ± 1	1017.3 ± 1	1011.7 ± 1	1006.2 ± 1	1371.7 ± 1.5	1350.8 ± 1.5	1329.6 ± 1.5	1308.3 ± 1.5

[2]
Settings	excess molar enthalpy [kJ/mol]
x2 = 0.0792	0.0817 ± 0.0021
x2 = 0.1286	0.124 ± 0.003
x2 = 0.1749	0.16 ± 0.0037
x2 = 0.2236	0.192 ± 0.0044
x2 = 0.2743	0.22 ± 0.005
x2 = 0.3289	0.245 ± 0.0055
x2 = 0.3729	0.262 ± 0.0058
x2 = 0.4298	0.279 ± 0.0062
x2 = 0.4715	0.287 ± 0.0064
x2 = 0.5242	0.293 ± 0.0065
x2 = 0.5735	0.293 ± 0.0065
x2 = 0.6199	0.289 ± 0.0064
x2 = 0.7182	0.262 ± 0.0058
x2 = 0.7628	0.241 ± 0.0054
x2 = 0.8193	0.205 ± 0.0046
x2 = 0.8672	0.165 ± 0.0038
x2 = 0.9173	0.113 ± 0.0027
